Reference: ChEMBL document CHEMBL4680193, “Isoindoline scaffold-based dual inhibitors of HDAC6 and HSP90 suppressing the growth of lung cancer in vitro and in vivo” (Eur J Med Chem, 2020)
Calls of active or inactive are those of the source. The calls are words filed in the database; no cut-off is given here.

What was measured:
[1] = test system: A549; assay: Growth inhibition of human A549 cells incubated for 48 hrs by SRB assay; assay type: functional; conditions: Homo sapiens, A549
[2] = test system: NCI-H1975; assay: cells; assay type: functional; conditions: Homo sapiens, time 48 hrs
[3] = target: Histone deacetylase; assay type: tissue-based, Homo sapiens; conditions: hela
[4] = target: T1, Histone deacetylase 8 (Homo sapiens, UniProt Q9BY41); assay: Inhibition of recombinant human HDAC8 using RHK-K(Ac)-AMC as substrate by fluorescence based assay
T1 sequence (Q9BY41 whole entry): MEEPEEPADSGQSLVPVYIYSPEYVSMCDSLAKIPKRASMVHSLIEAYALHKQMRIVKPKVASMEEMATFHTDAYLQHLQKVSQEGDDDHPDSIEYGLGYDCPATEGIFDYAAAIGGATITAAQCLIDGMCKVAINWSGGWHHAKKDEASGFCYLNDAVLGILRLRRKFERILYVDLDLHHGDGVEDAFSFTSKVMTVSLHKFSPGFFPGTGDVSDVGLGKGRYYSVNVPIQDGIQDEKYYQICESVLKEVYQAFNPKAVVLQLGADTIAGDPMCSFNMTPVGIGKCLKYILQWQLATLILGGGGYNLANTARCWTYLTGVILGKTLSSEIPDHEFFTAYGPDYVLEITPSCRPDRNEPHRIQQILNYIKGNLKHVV

[5] = species on record: Homo sapiens; assay: Selectivity index, ratio of IC50 for recombinant human C-terminal FLAG-His-tagged HDAC1 (1 to 482 residues) expressed in Sf21 cells to IC50 for recombinant human HDAC6
[6] = target: T2, Protein deacetylase HDAC6 (Homo sapiens) (UniProt Q9UBN7); assay: Inhibition of HDAC6 in human NCI-H1975 cells assessed as increase in acetylated alpha tubulin level after 24 hrs by Western blot analysis; assay type: cell-based; conditions: dose 0.1-3 µM
T2 sequence (whole entry): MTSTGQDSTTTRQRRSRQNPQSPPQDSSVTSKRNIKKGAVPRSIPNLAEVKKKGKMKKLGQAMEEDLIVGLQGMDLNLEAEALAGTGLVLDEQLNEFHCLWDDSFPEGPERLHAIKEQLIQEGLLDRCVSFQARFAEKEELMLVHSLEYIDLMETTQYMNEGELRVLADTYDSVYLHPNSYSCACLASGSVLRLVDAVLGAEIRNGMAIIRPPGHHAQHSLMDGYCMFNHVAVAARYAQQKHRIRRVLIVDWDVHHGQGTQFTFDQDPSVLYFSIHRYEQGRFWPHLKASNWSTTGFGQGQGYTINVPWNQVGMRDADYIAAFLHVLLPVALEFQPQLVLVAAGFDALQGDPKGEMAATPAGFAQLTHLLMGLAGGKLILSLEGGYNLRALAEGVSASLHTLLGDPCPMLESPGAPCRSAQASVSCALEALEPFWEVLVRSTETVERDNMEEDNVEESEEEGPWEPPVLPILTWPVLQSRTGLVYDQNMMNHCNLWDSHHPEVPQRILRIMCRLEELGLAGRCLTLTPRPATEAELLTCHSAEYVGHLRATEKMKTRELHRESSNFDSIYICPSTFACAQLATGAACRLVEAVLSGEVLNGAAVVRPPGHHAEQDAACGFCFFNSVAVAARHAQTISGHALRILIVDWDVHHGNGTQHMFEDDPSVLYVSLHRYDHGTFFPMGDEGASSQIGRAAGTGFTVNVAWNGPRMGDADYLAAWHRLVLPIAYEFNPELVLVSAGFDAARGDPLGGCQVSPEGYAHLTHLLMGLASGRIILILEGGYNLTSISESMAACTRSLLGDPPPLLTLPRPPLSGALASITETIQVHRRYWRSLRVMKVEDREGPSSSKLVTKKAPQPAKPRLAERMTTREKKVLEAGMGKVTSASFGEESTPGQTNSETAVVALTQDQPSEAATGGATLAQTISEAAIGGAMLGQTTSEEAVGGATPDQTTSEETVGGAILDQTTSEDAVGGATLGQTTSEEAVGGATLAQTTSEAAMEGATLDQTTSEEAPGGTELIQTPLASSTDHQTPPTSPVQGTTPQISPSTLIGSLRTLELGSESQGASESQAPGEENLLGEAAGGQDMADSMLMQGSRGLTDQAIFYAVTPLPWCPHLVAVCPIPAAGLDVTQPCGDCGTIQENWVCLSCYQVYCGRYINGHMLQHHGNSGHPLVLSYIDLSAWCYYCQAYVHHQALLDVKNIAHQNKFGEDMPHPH

[7] = test system: NCI-H1975; assay: Inhibition of IFN-gamma-induced PD-L1 in human NCI-H1975 cells at 0.3 uM incubated for 48 hrs by Flow cytometry analysis; assay type: functional, cell-based

- GI50 [1]: 760 nM
- GI50 [2]: 520 nM
- IC50 [3]: 388.8 nM
- IC50 [4]: 3720 nM
- inhibition [6]: Dose-dependent effect
Compound: CC(C)c1cc(C(=O)N2Cc3ccc(NC(=O)CCCCCCCCC(=O)NO)cc3C2)c(O)cc1O
- Ratio IC50 [5]: 434
- inhibition [7]: Active
